Tested on: rice
Assay: Low temperature assay on rice seedlings
Format: in vivo
Procedure: According to a low temperature assay, we measured parameters including plant height, number of leaf, area of leaf, number of tiller, weight of root at low temperature to completely determine effects of the natural brassinolide analogues on the resistance to low temperature of a plant.
The natural brassinolide analogues, BR1, BR2, BR3, BR4, BR5 and BR6, used herein, were those prepared by the method of Example 1. Respectively the analogues were dissolved into 95% (V/V) ethanol solution, and then diluted with pure water to 1 mg/L, 0.1 mg/L, 0.01 mg/L, 0.001 mg/L and 0.0001 mg/L. In addition, pure water was used as a control.
After rice seeds were disinfected by using 5% sodium hypochlorite solution treatment, they were rinsed with distilled water until their pH>7, placed into a petri dish in a dark incubator, and cultured by using water at 30° C.±2° C. for 9 days. Then respectively the nine-day-old etiolated seedlings of rice were immersed in the above solutions containing different concentrations of the natural brassinolide analogues or pure water, and cultured at the temperature of 1° C., 2° C., 3° C., 4° C. and 5° C. for 24 hr. The parameters including plant height, area of leaf and weight of root after 3, 6, 9 and 12 days and number of leaf and number of tiller after 12 days were measured.

`CC[C@@H](C(C)C)[C@@H](O)[C@H](O)[C@@H](C)[C@H]1CCC2C3COC(=O)C4C[C@H](O)[C@H](O)C[C@]4(C)C3CC[C@@]21C` (stereo partly drawn) [BR2] gave an Area of leaf (0.0001 mg/l, 1 °C, 3 days) of 9.8 cm^2, a Height (0.0001 mg/l, 1 °C, 3 days) of 6.8 cm and a Weight of root (0.0001 mg/l, 1 °C, 3 days) of 2.8 g. For the same compound, the Area of leaf (0.0001 mg/l, 1 °C, 6 days) was 11.2 cm^2, the Height (0.0001 mg/l, 1 °C, 6 days) was 6.9 cm and the Weight of root (0.0001 mg/l, 1 °C, 6 days) was 3.1 g. It also gave an Area of leaf (0.0001 mg/l, 1 °C, 9 days) of 12.4 cm^2, a Height (0.0001 mg/l, 1 °C, 9 days) of 7 cm and a Weight of root (0.0001 mg/l, 1 °C, 9 days) of 3.4 g. For the same compound, the Area of leaf (0.0001 mg/l, 1 °C, 12 days) was 13.1 cm^2, the Height (0.0001 mg/l, 1 °C, 12 days) was 7.2 cm and the Number of leaf (0.0001 mg/l, 1 °C, 12 days) was 3. The Number of tiller (0.0001 mg/l, 1 °C, 12 days) was 3, the Weight of root (0.0001 mg/l, 1 °C, 12 days) was 3.9 g and the Area of leaf (0.0001 mg/l, 2 °C, 3 days) was 10 cm^2. The Height (0.0001 mg/l, 2 °C, 3 days) was 6.8 cm, the Weight of root (0.0001 mg/l, 2 °C, 3 days) was 2.8 g and the Area of leaf (0.0001 mg/l, 2 °C, 6 days) was 11.7 cm^2. For the same compound, the Height (0.0001 mg/l, 2 °C, 6 days) was 7 cm, the Weight of root (0.0001 mg/l, 2 °C, 6 days) was 3.0 g and the Area of leaf (0.0001 mg/l, 2 °C, 9 days) was 12.4 cm^2. The Height (0.0001 mg/l, 2 °C, 9 days) was 7.1 cm, the Weight of root (0.0001 mg/l, 2 °C, 9 days) was 3.2 g and the Area of leaf (0.0001 mg/l, 2 °C, 12 days) was 13 cm^2. For the same compound, the Height (0.0001 mg/l, 2 °C, 12 days) was 7.4 cm, the Number of leaf (0.0001 mg/l, 2 °C, 12 days) was 3 and the Number of tiller (0.0001 mg/l, 2 °C, 12 days) was 3. The Weight of root (0.0001 mg/l, 2 °C, 12 days) was 3.9 g, the Area of leaf (0.0001 mg/l, 3 °C, 3 days) was 10 cm^2 and the Height (0.0001 mg/l, 3 °C, 3 days) was 6.9 cm. For the same compound, the Weight of root (0.0001 mg/l, 3 °C, 3 days) was 2.5 g, the Area of leaf (0.0001 mg/l, 3 °C, 6 days) was 11.8 cm^2 and the Height (0.0001 mg/l, 3 °C, 6 days) was 7.2 cm. The Weight of root (0.0001 mg/l, 3 °C, 6 days) was 2.6 g, the Area of leaf (0.0001 mg/l, 3 °C, 9 days) was 12.3 cm^2 and the Height (0.0001 mg/l, 3 °C, 9 days) was 7.4 cm. For the same compound, the Weight of root (0.0001 mg/l, 3 °C, 9 days) was 2.9 g, the Area of leaf (0.0001 mg/l, 3 °C, 12 days) was 13.2 cm^2 and the Height (0.0001 mg/l, 3 °C, 12 days) was 7.5 cm. For the same compound, the Number of leaf (0.0001 mg/l, 3 °C, 12 days) was 3, the Number of tiller (0.0001 mg/l, 3 °C, 12 days) was 2 and the Weight of root (0.0001 mg/l, 3 °C, 12 days) was 2.9 g. For the same compound, the Area of leaf (0.0001 mg/l, 4 °C, 3 days) was 10 cm^2, the Height (0.0001 mg/l, 4 °C, 3 days) was 6.9 cm and the Weight of root (0.0001 mg/l, 4 °C, 3 days) was 2.5 g. The Area of leaf (0.0001 mg/l, 4 °C, 6 days) was 11.7 cm^2, the Height (0.0001 mg/l, 4 °C, 6 days) was 7.3 cm and the Weight of root (0.0001 mg/l, 4 °C, 6 days) was 2.6 g. For the same compound, the Area of leaf (0.0001 mg/l, 4 °C, 9 days) was 13 cm^2, the Height (0.0001 mg/l, 4 °C, 9 days) was 7.5 cm and the Weight of root (0.0001 mg/l, 4 °C, 9 days) was 2.9 g. The Area of leaf (0.0001 mg/l, 4 °C, 12 days) was 13.4 cm^2, the Height (0.0001 mg/l, 4 °C, 12 days) was 7.6 cm and the Number of leaf (0.0001 mg/l, 4 °C, 12 days) was 3. For the same compound, the Number of tiller (0.0001 mg/l, 4 °C, 12 days) was 2, the Weight of root (0.0001 mg/l, 4 °C, 12 days) was 2.9 g and the Area of leaf (0.0001 mg/l, 5 °C, 3 days) was 10.2 cm^2. It also gave a Height (0.0001 mg/l, 5 °C, 3 days) of 7.0 cm, a Weight of root (0.0001 mg/l, 5 °C, 3 days) of 2.5 g and an Area of leaf (0.0001 mg/l, 5 °C, 6 days) of 12 cm^2. It also gave a Height (0.0001 mg/l, 5 °C, 6 days) of 7.4 cm, a Weight of root (0.0001 mg/l, 5 °C, 6 days) of 2.7 g and an Area of leaf (0.0001 mg/l, 5 °C, 9 days) of 13.6 cm^2. The Height (0.0001 mg/l, 5 °C, 9 days) was 7.5 cm, the Weight of root (0.0001 mg/l, 5 °C, 9 days) was 2.9 g and the Area of leaf (0.0001 mg/l, 5 °C, 12 days) was 14 cm^2. For the same compound, the Height (0.0001 mg/l, 5 °C, 12 days) was 7.7 cm, the Number of leaf (0.0001 mg/l, 5 °C, 12 days) was 3 and the Number of tiller (0.0001 mg/l, 5 °C, 12 days) was 2. It also gave a Weight of root (0.0001 mg/l, 5 °C, 12 days) of 3.0 g, an Area of leaf (0.001 mg/l, 1 °C, 3 days) of 10.1 cm^2 and a Height (0.001 mg/l, 1 °C, 3 days) of 6.9 cm. For the same compound, the Weight of root (0.001 mg/l, 1 °C, 3 days) was 2.8 g, the Area of leaf (0.001 mg/l, 1 °C, 6 days) was 11.3 cm^2 and the Height (0.001 mg/l, 1 °C, 6 days) was 7.1 cm. The Weight of root (0.001 mg/l, 1 °C, 6 days) was 3.1 g, the Area of leaf (0.001 mg/l, 1 °C, 9 days) was 12.6 cm^2 and the Height (0.001 mg/l, 1 °C, 9 days) was 7.1 cm. For the same compound, the Weight of root (0.001 mg/l, 1 °C, 9 days) was 3.4 g, the Area of leaf (0.001 mg/l, 1 °C, 12 days) was 13 cm^2 and the Height (0.001 mg/l, 1 °C, 12 days) was 7.3 cm. The Number of leaf (0.001 mg/l, 1 °C, 12 days) was 3, the Number of tiller (0.001 mg/l, 1 °C, 12 days) was 3 and the Weight of root (0.001 mg/l, 1 °C, 12 days) was 3.9 g. For the same compound, the Area of leaf (0.001 mg/l, 2 °C, 3 days) was 9.8 cm^2, the Height (0.001 mg/l, 2 °C, 3 days) was 6.9 cm and the Weight of root (0.001 mg/l, 2 °C, 3 days) was 2.8 g.

From patent publication US9326506B2, “Preparation method, agricultural composition and applications of natural brassinolide analogs” (CHENGDU NEWSUN CROPSCIENCE CO., LTD, priority 2012, dated 2016)
